How the values were obtained:
[1] = test system: Agonist, glucocorticoid receptor (GR); set-up: method as in PubChem Bioassay AID 720691; settings: ref PubChem Bioassay AID 720691; cited from earlier work
[2] = test system: Antagonist, thyroid receptor (TR); set-up: method as in PubChem Bioassay AID 743065; settings: ref PubChem Bioassay AID 743065; cited from earlier work
[3] = test system: Cytotoxicity, Agonist, AP-1; set-up: method as in PubChem Bioassay AID 1159525; settings: ref PubChem Bioassay AID 1159525; cited from earlier work
[4] = test system: Anticancer, non-Hodgkin lymphoma; set-up: method as in PubChem Bioassay AID 651568; settings: ref PubChem Bioassay AID 651568; cited from earlier work
[5] = test system: Chlamydomonas reinhardtii Algae Gravitaxis; set-up: method as in PubChem Bioassay AID 463189; settings: ref PubChem Bioassay AID 463189; cited from earlier work
[6] = test system: Antagonist, retinoid-related orphan receptor gamma (ROR-gamma); set-up: method as in PubChem Bioassay AID 1159523; settings: ref PubChem Bioassay AID 1159523; cited from earlier work
Anti-Inflammatory model = test system: Anti-Inflammatory model; set-up: method as in PubChem Bioassay AID 457; settings: ref PubChem Bioassay AID 457; cited from earlier work
Anticancer, Melanoma = test system: Anticancer, Melanoma; set-up: method as in PubChem Bioassay AID 192; settings: ref PubChem Bioassay AID 192; cited from earlier work
[7] = test system: beta-2 adrenergic receptor; set-up: method as in PubChem Bioassay AID 504459; settings: ref PubChem Bioassay AID 504459; cited from earlier work
[8] = β-Carotene/linoleic acid co-oxidation assay
Protocol: The evaluation of the antioxidant activity using the β-carotene/linoleic acid co-oxidation system was performed according to Duarte-Almeida et al., with adaptations. The extracts were solubilized in MeOH (2.2 mg/mL) and further diluted to concentrations ranging from 3.125 to 200 μg/mL. An aliquot of 25 μL of sample solutions were added in the 96-well microplate. 25 mg of linoleic acid and 100 mg Tween 20 (Sigma, St. Louis, MO, USA) were added to a round-bottom flask containing 1 mL of a β-carotene solution (1 mg/mL, Sigma, St. Louis, MO, USA) in chloroform. The latter was removed in a rotatory evaporator and, then, 50 mL of aerated water was added to the flask, affording the β-carotene emulsion. Portions of 250 μL of the freshly prepared emulsion were added to the wells corresponding to the odd columns of a microplate. […] Readings were performed immediately at 470 nm. After the first reading, the microplate was incubated at 45 °C and the kinetic cycle was performed with readings at 15 min intervals for a total of 120 min. The antioxidant activity was expressed as % of inhibition of lipid peroxidation (%I), using the formula (I% = Ac (initial abs − Final abs) − Aam (final abs − Initial abs)/Ac × 100). Assays were performed in triplicate and IC50 values were determined by non-linear regression using GraphPad Prism, version 6.0 (GraphPad Software, San Diego, CA, USA).

[9] = test system: Cytotoxicity, Agonist, constitutive androstane receptor (CAR); set-up: method as in PubChem Bioassay AID 1224836; settings: ref PubChem Bioassay AID 1224836; cited from earlier work
Anticancer, Leukemia = test system: Anticancer, Leukemia; set-up: method as in PubChem Bioassay AID 1053195; settings: ref PubChem Bioassay AID 1053195; cited from earlier work
[10] = test system: Antagonist, vitamin D receptor (VDR); set-up: method as in PubChem Bioassay AID 743242; settings: ref PubChem Bioassay AID 743242; cited from earlier work
[11] = test system: Antagonist, peroxisome proliferator-activated receptor gamma (PPARg); set-up: method as in PubChem Bioassay AID 743191; settings: ref PubChem Bioassay AID 743191; cited from earlier work
[12] = molecular target: T1, AChE from Electropardus electricous type VI-S (Electrophorus electricus, UniProt O42275); assay: AChE inhibition microplate assay (Ellman); assay type: biochemical; settings: 400 μg/mL; read-out: Inhibition of AChE Microplate (%I)
T1 construct: purchased Sigma-Aldrich, St. Louis, MO, USA type VI-S (catalogue number not given)
Protocol: AChE inhibition assay was performed on a 96-well microplate according to Ellman’s method with adaptations. Initially, the extracts were solubilized on MeOH, at 20 mg/mL, and diluted to 4 mg/mL using Tris/HCl buffer solution (50 mM, pH 8.0). A portion of 25 µL of the samples (4 mg/mL) were added to the wells of the microplate, as well as 50 μL of 0.1% BSA solution in Tris/HCl Buffe (pH 8.0), 125 μL of DTNB in Tris/HCl (3 mM) containing NaCl (10 mM) and MgCl2 (20 mM). Subsequently, 25 μL of the ATCI aqueous solution (15 mM) was added to all wells. Then, a background reading was performed at 405 nm using microplate reader (Multiskan Go, Thermo Scientific, Whaltham, MA, USA). The enzymatic reaction was initiated after the addition of 25 µL of AChE solution (AChE from Electropardus electricous type VI-S, 0.2 U/mL, Sigma-Aldrich, St. Louis, MO, USA) in Tris/HCl buffer (50 mM, pH 8.0) containing 0.1% BSA. The kinetic cycle was performed in a period of 25 min, with readings at 5 min intervals, at 405 nm. Physostigmine (Eserine, Sigma, St. Louis, MO, USA) was employed as the positive control. […] The assay was performed in triplicate and the % of inhibition (%I) was calculated according to the following equation: %I = [(a − b)/a] × 100, where a = ΔA/min of control; b = ΔA/min of test sample; ΔA = change in absorbance between time x and time zero. […]

Agonist, p53 = test system: Agonist, p53; set-up: method as in PubChem Bioassay AID 720552; settings: ref PubChem Bioassay AID 720552; cited from earlier work

T1 sequence (O42275 24-633): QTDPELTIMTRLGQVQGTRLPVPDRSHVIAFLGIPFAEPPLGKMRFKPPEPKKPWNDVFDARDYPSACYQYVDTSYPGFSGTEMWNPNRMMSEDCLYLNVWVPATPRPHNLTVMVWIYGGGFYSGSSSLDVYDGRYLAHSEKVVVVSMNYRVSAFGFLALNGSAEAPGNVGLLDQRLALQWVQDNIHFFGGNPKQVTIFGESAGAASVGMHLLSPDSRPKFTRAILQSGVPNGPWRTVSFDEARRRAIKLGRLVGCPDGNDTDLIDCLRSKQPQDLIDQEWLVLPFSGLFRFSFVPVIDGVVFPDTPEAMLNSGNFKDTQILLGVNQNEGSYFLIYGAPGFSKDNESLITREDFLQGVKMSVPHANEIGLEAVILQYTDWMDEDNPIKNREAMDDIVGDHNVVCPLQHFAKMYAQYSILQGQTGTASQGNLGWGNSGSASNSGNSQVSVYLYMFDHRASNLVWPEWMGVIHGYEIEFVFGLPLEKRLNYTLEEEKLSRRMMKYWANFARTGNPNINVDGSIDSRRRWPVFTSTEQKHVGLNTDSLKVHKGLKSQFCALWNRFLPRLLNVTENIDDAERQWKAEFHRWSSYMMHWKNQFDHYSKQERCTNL

SMILES: COc1cc([C@@H]2c3cc4c(cc3[C@H](O)[C@H]3COC(=O)[C@H]23)OCO4)cc(OC)c1OC [Podophyllotoxin, podophyllotoxin]
- Exper. Activity [1]: Inactive
- Exper. Activity [2]: Active
- Exper. Activity [3]: Inactive
- Exper. Activity [4]: Inactive
- Exper. Activity [5]: Inactive
- Exper. Activity [6]: Active
- Exper. Activity (Anti-Inflammatory model): Inactive
- Exper. Activity (Anticancer, Melanoma): Inactive
- Exper. Activity [7]: Inactive
- Antioxidant Activity (IC50-µg/mL) β-Carotene/linoleic Acid [8]: >200 µg/mL
- Exper. Activity [9]: Inactive
- Exper. Activity (Anticancer, Leukemia): Inactive
- Exper. Activity [10]: Active
- Exper. Activity [11]: Inactive
- inhibition at 400 µg/mL [12]: 32.7 ± 5.38%
- Exper. Activity (Agonist, p53): Inactive
